Where a name gives a salt, the structure may show the parent alone. Read-outs that look alike come from different tables or passages of the source.
How the values were obtained:
[1] = target: Human recombinant PDE2A (hPDE2A) (Homo sapiens (Human), UniProt O00408); assay: In vitro assay PDE2A (SPA, 3H-cGMP); assay type: biochemical; settings: -log IC50 expressed in mol/L
[2] = tested on: Apomorphine-induced agitation in rats; assay: Inhibition of apomorphine-induced agitation in rats (APO); settings: for Dose at max effect / Max effect (lowest median cumulative agitation score) / LAD (lowest active dose): SC; for Max effect (lowest median cumulative agitation score): at the dose at max effect; for LAD (lowest active dose): lowest dose at which >=67% tested animals respond
[3] = target: Rat recombinant PDE10A (rPDE10A2) (Rattus norvegicus (Rat), UniProt Q9QYJ6); assay: In vitro assay PDE10A (SPA, 3H-cAMP); assay type: biochemical; settings: -log IC50 expressed in mol/L
[4] = tested on: Apomorphine-induced agitation in rats; assay: Inhibition of apomorphine-induced agitation in rats in combination with MP-10; assay type: in vivo, rat; settings: SC, MP-10 (0.63 mg/kg) + apomorphine (1.0 mg/kg) i.v.
Experimental: Inhibition of Apomorphine-induced Agitation in Rats in combination with MP-10 but the animals were simultaneously challenged with MP-10 (0.63 mg/kg) in addition to apomorphine (1.0 mg/kg) via one injection (2 ml/kg, i.v.), at a fixed time interval (standard 1 h) after s.c. or p.o. dosing of test compound or solvent. Twelve times, every 5 min, the intensity of agitation was scored 0 to 3.

[5] = tested on: d-Amphetamine-induced hyperlocomotion in rats; assay: d-Amphetamine-induced hyperlocomotion in rats: MP-10 or B-1a alone (FIGS. 6-8); assay type: in vivo, rat; settings: 40 mg/kg s.c., 1 h
[6] = tested on: d-Amphetamine-induced hyperlocomotion in rats; assay: Inhibition of d-amphetamine-induced hyperlocomotion in rats in combination with Compound A and Compound B (FIGS. 9, 10); assay type: in vivo, rat; settings: B-1a 0.63-5.0 mg/kg s.c., -1 h
[7] = tested on: cGMP levels in the rat brain; settings: increase versus control
[8] = tested on: d-Amphetamine-induced hyperlocomotion in rats; assay: d-Amphetamine-induced hyperlocomotion in rats: potentiation of the effect of MP-10; assay type: in vivo, rat; settings: SC, d-amphetamine (1.25 mg/kg, s.c.) + MP-10 (2.5 mg/kg, s.c.)
[9] = tested on: Apomorphine-induced agitation in rats; assay: Inhibition of apomorphine-induced agitation in rats in combination with Compound A and Compound B (FIGS. 4, 5); assay type: in vivo, rat; settings: -1 h
[10] = target: PDE2 (Rattus norvegicus (Rat), UniProt Q01062); settings: rat brain sections
Sequence of PDE2 (Q01062 whole entry): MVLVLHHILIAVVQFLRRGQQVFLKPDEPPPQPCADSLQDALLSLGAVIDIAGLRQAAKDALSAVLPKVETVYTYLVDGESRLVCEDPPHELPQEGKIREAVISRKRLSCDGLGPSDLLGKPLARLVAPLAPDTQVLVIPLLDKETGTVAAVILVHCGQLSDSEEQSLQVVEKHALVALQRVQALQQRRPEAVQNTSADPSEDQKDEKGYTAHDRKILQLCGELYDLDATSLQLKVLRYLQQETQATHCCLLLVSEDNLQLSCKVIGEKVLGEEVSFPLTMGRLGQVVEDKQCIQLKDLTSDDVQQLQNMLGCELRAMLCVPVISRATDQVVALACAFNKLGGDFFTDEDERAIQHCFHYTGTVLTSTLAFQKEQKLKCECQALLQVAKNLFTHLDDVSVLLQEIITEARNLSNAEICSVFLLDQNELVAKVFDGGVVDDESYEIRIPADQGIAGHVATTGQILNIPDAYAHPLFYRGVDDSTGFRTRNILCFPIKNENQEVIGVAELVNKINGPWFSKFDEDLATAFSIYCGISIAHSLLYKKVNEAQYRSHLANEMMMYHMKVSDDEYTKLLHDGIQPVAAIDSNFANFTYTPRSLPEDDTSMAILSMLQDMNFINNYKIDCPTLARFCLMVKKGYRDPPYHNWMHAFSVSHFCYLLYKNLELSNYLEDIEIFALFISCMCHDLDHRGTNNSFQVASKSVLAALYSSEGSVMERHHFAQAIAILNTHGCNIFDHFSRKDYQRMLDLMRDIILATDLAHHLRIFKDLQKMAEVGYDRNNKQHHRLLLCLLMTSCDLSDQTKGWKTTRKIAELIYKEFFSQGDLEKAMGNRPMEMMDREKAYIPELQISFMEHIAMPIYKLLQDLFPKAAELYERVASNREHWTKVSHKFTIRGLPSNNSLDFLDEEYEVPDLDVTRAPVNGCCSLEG

Sequence of Rat recombinant PDE10A (rPDE10A2) (Q9QYJ6 whole entry): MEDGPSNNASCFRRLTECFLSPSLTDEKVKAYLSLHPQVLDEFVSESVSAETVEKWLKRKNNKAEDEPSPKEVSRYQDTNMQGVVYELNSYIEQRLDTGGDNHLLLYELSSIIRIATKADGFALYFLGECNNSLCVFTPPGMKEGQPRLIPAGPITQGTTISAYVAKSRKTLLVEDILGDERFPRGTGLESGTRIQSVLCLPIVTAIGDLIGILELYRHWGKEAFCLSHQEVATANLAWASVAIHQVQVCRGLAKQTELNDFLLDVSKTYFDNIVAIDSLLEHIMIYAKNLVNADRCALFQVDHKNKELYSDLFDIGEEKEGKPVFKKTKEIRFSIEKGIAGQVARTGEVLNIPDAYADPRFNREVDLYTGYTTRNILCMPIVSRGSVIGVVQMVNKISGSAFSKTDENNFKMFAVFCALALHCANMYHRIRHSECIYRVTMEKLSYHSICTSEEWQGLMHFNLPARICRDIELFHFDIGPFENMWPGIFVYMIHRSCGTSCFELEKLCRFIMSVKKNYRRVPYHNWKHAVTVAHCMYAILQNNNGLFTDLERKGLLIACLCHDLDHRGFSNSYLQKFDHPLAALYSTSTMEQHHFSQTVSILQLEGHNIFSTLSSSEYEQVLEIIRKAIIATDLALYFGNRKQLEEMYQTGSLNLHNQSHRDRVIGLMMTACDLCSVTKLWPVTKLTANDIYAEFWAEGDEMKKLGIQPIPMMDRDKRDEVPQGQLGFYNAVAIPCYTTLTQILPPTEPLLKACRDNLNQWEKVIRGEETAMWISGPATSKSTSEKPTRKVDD
Sequence of Human recombinant PDE2A (hPDE2A) (O00408 whole entry): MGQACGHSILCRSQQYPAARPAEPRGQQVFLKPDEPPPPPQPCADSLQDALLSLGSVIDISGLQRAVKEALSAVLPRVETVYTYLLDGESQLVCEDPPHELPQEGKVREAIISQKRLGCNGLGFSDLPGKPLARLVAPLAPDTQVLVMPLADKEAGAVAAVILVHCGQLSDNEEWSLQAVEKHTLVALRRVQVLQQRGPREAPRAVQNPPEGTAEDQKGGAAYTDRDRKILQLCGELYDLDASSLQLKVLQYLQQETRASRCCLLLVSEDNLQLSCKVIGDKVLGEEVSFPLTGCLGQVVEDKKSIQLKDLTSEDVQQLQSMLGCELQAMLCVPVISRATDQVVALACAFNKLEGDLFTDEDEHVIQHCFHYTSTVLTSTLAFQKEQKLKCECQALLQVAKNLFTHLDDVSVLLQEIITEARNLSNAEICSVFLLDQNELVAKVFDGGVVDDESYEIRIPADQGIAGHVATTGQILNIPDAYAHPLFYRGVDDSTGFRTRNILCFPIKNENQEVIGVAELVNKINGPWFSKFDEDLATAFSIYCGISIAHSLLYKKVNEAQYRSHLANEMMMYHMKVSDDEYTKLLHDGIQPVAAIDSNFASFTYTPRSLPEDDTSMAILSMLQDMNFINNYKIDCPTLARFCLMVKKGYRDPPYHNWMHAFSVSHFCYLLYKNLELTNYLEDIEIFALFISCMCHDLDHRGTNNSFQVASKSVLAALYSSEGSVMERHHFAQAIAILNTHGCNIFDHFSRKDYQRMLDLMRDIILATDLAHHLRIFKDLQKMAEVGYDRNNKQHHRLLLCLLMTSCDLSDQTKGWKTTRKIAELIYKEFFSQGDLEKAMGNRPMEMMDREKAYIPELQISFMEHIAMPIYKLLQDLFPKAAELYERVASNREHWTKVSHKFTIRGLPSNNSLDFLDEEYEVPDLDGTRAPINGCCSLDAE

Cc1nc2ccc(CN3CCOCC3)cc2n2c(-c3ccccc3Cl)nnc12 [Compound B-3, 1-(2-Chlorophenyl)-4-methyl-8-(morpholin-4-ylmethyl)[1,2,4]triazolo[4,3-a]-quinoxaline]
pIC50 PDE2 [1]: 8.64 | Dose at max effect [2]: 5 | Max effect (lowest median cumulative agitation score) [2]: 14 | LAD (lowest active dose) [2]: 5 | PIC50 PDE10 [3]: 7.47

CCCCOc1cncc(-c2nnc3c(C)nc4ccc(CN5CCOCC5)cc4n23)c1 [Compound B-1a, 1-(5-Butoxypyridin-3-yl)-4-methyl-8-(morpholin-4-ylmethyl) [1,2,4]triazolo[4,3-a]quinoxaline hydrochloride]
Inh. of agitation < 10 Effect (cumulative agitation score) ([4]; Time 60, dose 0.63): 18 | Inh. of agitation < 10 Effect (cumulative agitation score) ([4]; Time 60, dose 1.25): 10 | Inh. of agitation < 10 Effect (cumulative agitation score) ([4]; Time 60, dose 2.5): 11 | Inh. of agitation < 10 Effect (cumulative agitation score) ([4]; Time 60, dose 5): 6 | Inh. of agitation < 10 Effect (cumulative agitation score) ([4]; Time 60, dose 10): 7 | Inh. of agitation < 10 Effect (cumulative agitation score) ([4]; Time 60, dose 40): 1 | effect against d-amphetamine-induced hyperlocomotion, alone [5]: ineffective per se | Dose at max effect [2]: 40 | Max effect (lowest median cumulative agitation score) [2]: 23 | LAD (lowest active dose) [2]: >40 | effect against apomorphine-induced agitation, administered alone ([2]; without MP-10, at the tested doses): ineffective against apomorphine | effect on d-amphetamine-induced hyperlocomotion combined with the solvent of the PDE10-is [6]: ineffective against the d-amphetamine-induced hyperlocomotion | effect on d-amphetamine-induced hyperlocomotion combined with Compound A or Compound B ([6]; PDE10-i 2.5 mg/kg s.c.): potentiated the effect of both PDE10-is | incr vs contr (pmol cGMP/ml) (measured) ([7]; 2.5 mpk): 5.4 pmol cGMP/ml | incr vs contr (pmol cGMP/ml) (measured) ([7]; 10 mpk): 9.7 pmol cGMP/ml | Distance Total <2500 cm Effect ([8]; Time -60, dose 0.31): 3066 cm | Distance Total <2500 cm Effect ([8]; Time -60, dose 0.63): 2525 cm | Distance Total <2500 cm Effect ([8]; Time -60, dose 1.25): 1664 cm | Distance Total <2500 cm Effect ([8]; Time -60, dose 2.5): 1659 cm | Distance Total <2500 cm Effect ([8]; Time -60, dose 5): 1281 cm | Distance Total <2500 cm Effect ([8]; Time -60, dose 10): 727.6 cm | effect on apomorphine-induced agitation combined with Compound A or Compound B ([9]; B-1a 5.0 mg/kg s.c., PDE10-i 2.5 mg/kg s.c.): significantly potentiated the effect of both PDE10-is | effect on apomorphine-induced agitation combined with the solvent of the PDE10-is ([9]; B-1a 0.63-5.0 mg/kg s.c.): did not affect apomorphine-induced agitation

O=P1(O)OCC2O[C@@H](n3cnc4ccccc43)[C@H](O)C2O1 (some centres unmarked) [cBIMP]
effect on specific binding of [3H]B-1a [10]: increase the specific binding
